In article PMC12435777, “Assessing Acetyl-Coenzyme A Carboxylase Activity and Inhibition in Caenorhabtidis elegans Using a Partially Purified Protein Extract” (Analytical Chemistry, 2025):

Target: acetyl-CoA carboxylase (ACC, POD-2) (Caenorhabditis elegans, UniProt H2L0M0)
Test: real-time HPLC and NMR kinetics of malonyl-CoA formation with partially purified enzyme extract; Ki estimated from the change in KM
Format: biochemical

Sequence of acetyl-CoA carboxylase (ACC, POD-2) (H2L0M0 entry or part of it): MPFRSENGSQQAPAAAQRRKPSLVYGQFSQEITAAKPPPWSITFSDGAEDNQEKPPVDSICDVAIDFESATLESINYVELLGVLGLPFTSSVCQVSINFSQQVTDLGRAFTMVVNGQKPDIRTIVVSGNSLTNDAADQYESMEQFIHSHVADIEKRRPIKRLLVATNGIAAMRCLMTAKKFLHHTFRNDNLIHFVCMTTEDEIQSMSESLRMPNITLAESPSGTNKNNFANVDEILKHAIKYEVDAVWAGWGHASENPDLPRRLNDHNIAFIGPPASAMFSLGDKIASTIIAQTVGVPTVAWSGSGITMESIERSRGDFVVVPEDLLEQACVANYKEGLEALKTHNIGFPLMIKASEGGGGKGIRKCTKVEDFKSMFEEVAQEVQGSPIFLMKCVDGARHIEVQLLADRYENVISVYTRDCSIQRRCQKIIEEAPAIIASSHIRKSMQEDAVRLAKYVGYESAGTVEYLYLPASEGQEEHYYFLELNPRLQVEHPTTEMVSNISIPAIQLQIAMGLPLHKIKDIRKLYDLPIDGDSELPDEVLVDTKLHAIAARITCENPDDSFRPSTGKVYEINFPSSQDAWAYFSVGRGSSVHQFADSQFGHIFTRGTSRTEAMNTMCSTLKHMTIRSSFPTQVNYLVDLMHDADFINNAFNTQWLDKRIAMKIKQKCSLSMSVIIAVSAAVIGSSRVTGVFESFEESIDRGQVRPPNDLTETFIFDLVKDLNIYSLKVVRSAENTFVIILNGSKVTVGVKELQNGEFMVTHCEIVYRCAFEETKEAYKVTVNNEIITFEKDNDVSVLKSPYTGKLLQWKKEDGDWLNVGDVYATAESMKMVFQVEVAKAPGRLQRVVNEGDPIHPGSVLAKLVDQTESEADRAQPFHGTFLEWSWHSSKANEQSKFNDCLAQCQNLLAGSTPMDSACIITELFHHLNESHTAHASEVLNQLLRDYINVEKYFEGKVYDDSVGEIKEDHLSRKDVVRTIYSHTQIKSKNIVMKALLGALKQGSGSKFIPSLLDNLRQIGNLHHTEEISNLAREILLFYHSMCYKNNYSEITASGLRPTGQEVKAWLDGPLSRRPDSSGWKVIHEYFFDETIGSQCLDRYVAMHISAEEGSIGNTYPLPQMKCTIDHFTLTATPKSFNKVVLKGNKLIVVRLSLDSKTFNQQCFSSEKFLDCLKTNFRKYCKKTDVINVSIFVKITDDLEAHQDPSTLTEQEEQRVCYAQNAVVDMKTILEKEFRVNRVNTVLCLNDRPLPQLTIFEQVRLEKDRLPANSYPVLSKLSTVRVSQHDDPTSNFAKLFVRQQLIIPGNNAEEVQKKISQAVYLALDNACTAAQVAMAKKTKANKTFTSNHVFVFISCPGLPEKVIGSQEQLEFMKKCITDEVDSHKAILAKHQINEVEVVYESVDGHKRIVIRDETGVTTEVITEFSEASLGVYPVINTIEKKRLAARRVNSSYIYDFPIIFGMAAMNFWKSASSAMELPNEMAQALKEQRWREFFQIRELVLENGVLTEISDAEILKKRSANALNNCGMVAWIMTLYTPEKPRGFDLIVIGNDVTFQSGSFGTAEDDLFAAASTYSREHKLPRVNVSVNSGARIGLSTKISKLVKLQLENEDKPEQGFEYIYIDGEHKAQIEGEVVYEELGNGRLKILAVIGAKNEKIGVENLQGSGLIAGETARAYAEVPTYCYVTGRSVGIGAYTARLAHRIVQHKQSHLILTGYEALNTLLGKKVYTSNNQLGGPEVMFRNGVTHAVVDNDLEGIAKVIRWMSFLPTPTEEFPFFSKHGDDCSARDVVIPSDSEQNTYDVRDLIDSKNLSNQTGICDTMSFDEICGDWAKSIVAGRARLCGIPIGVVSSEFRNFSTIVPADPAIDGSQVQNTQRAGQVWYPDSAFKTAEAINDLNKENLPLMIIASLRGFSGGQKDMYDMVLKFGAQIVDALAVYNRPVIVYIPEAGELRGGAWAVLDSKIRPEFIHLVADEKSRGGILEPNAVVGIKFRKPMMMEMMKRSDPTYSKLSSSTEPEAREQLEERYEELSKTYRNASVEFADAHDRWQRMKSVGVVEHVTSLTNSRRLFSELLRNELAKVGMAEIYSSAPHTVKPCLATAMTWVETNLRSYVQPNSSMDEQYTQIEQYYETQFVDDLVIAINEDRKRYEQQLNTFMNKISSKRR

C=CCCCCCCCCCCC[C@@H](O)C[C@@H](O)COC(C)=O [avocadene acetate]
Ki: ~12.5 µM
